Test results taken from ChEMBL document CHEMBL4261505, “Imidazoles as potential anticancer agents” (Medchemcomm, 2017).

Experiments:
[1] = Antiproliferative activity against human WM3629 cells; type: functional
Cytochrome P450 26A1 = target: T1, Cytochrome P450 26A1 (Homo sapiens, UniProt O43174); assay: Inhibition of CYP26A1 (unknown origin)
T1 sequence (O43174 whole entry): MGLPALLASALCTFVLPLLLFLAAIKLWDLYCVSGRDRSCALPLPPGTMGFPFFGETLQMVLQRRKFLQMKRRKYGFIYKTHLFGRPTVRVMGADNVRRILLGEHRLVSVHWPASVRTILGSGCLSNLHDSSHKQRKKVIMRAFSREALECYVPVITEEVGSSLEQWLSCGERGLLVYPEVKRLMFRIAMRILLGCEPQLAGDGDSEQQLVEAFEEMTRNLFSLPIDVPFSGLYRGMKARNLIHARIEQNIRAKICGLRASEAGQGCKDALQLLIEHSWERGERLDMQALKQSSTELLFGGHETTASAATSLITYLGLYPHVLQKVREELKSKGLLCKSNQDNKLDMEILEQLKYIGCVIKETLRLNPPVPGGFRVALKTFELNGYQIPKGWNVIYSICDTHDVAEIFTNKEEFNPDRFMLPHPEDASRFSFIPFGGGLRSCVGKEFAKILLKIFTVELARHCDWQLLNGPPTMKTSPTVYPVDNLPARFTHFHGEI

MCF7 [2] = assay: Antiproliferative activity against human MCF7 cells; type: functional, cell-based
HCT-116 = assay: Antiproliferative activity against human HCT116 cells; type: functional, cell-based
HeLa [3] = assay: Antiproliferative activity against human HeLa cells; type: functional, cell-based
A549 = assay: Antiproliferative activity against human A549 cells; type: functional, cell-based
P388 [4] = assay: Antitumor activity against mouse P388 cells implanted in DBA/2J mouse assessed as increase in mouse life span at 200 mg/kg/day, po for 4 consecutive days relative to control; type: functional
NUGC-3 = assay: Antiproliferative activity against human NUGC3 cells after 72 hrs by MTT assay; type: functional, cell-based; details: NUGC-3, 72 h
HeLa [5] = assay: Antiproliferative activity against human HeLa cells after 72 hrs by MTT assay; type: functional, cell-based
LS180 = assay: Antiproliferative activity against human LS180 cells after 72 hrs by MTT assay; type: functional, cell-based; details: LS180, 72 h
MCF7 [6] = assay: Antiproliferative activity against human MCF7 cells after 72 hrs by MTT assay; type: functional, cell-based; details: MCF7, 72 h
Jurkat = assay: Antiproliferative activity against human Jurkat cells after 72 hrs by MTT assay; type: functional, cell-based
A-431 = assay: Antitumor activity against human A431 cells xenografted in athymic mouse assessed as tumor growth inhibition at 25 mg/kg relative to control; type: functional; details: read-out: TGI
P388 [7] = assay: Antitumor activity against mouse P388 cells implanted in DBA/2J mouse assessed as increase in mouse life span at 5 mg/kg, iv relative to control; type: functional

C[C@H](O)CNc1nccc(-n2ccnc2-c2cccc(NC(=O)c3ccc(Cl)c(C(F)(F)F)c3)c2)n1
GI50 [1]: 0.62 µM

C[C@H](O)CNc1nccc(-n2ccnc2-c2cccc(NC(=O)Nc3ccc(Cl)c(Cl)c3)c2)n1
GI50 [1]: 0.65 µM

COC(=O)C(C)(C)C(c1ccc(Nc2ccc3ccccc3c2)cc1)n1ccnc1 (stereo unspecified)
IC50 (Cytochrome P450 26A1): 0.03 µM

Cc1nc2cc(Cl)c(Cl)cc2n1C1CCCC1
IC50 (MCF7 [2]): 40 µM
IC50 (HCT-116): 3 µM

C[S+]([O-])c1nc2cc(Cl)c(Cl)cc2n1C1CCCC1 (stereo unspecified)
IC50 (MCF7 [2]): 0.5 µM
IC50 (HCT-116): 0.5 µM

CS(=O)(=O)c1nc2cc(Cl)c(Cl)cc2n1C1CCCC1
IC50 (MCF7 [2]): 0.6 µM
IC50 (HCT-116): 0.6 µM

CCCCCCCn1c(CCCC)nc(Cl)c1-c1nc2ccccc2[nH]1
IC50 (HeLa [3]): 25.3 µM

COc1ccc(-c2sc3nc(-c4ccc(F)cc4)c(C(=O)c4cccnc4)n3c2-c2ccc(OC)cc2)cc1
IC50 (A549): 0.64 µM

Nc1nc(-c2cccs2)cn1-c1nc(-c2ccccc2)cs1
ILS at 200 mg/kg/day (P388 [4]): 75%
IC50 (NUGC-3): 0.05 µM

O=C1CCCc2nc3c(c(-c4ncc[nH]4)c21)C(=O)c1ccccc1-3
IC16 (HeLa [5]): > 100 µM
IC50 (HeLa [5]): > 100 µM
IC16 (LS180): > 100 µM
IC50 (LS180): > 100 µM
IC16 (MCF7 [6]): > 100 µM
IC50 (MCF7 [6]): > 100 µM
IC16 (Jurkat): 1.7 µM
IC50 (Jurkat): 70.9 µM

CC1CC(=O)C2=C(C1)N(c1ccccc1)C1=C(C(=O)c3ccccc31)C2c1nc(Cl)c(Cl)[nH]1 (stereo unspecified)
IC16 (HeLa [5]): 10.7 µM
IC50 (HeLa [5]): 59 µM
IC16 (LS180): 19.4 µM
IC50 (LS180): > 100 µM
IC16 (MCF7 [6]): 13.6 µM
IC50 (MCF7 [6]): 77.1 µM
IC16 (Jurkat): 1.7 µM
IC50 (Jurkat): 95.8 µM

CCCCc1nc(Cl)c(-c2nc3ccccc3[nH]2)n1Cc1cccc(C)c1
IC50 (HeLa [3]): 30.2 µM

CC1CC(=O)C2=C(C1)NC1=C(C(=O)c3ccccc31)C2c1ncc([N+](=O)[O-])n1C (stereo unspecified)
IC16 (HeLa [5]): 9.2 µM
IC50 (HeLa [5]): > 25 µM
IC16 (LS180): 12.5 µM
IC50 (LS180): > 25 µM
IC16 (MCF7 [6]): > 25 µM
IC50 (MCF7 [6]): > 25 µM
IC16 (Jurkat): 0.7 µM
IC50 (Jurkat): > 25 µM

COc1ccc(Cc2[nH]c(=N)n(C)c2Cc2ccc(O)cc2)cc1 [NAAMINE A]
inhibition in vivo at 25 mg/kg (A-431): 85%

CNC(=O)c1cc(Oc2ccc(NC(=O)Nc3ccc(Cl)c(C(F)(F)F)c3)cc2)ccn1 [SORAFENIB]
GI50 [1]: 0.78 µM

CC[C@]1(O)C[C@@H]2CN(CCc3c([nH]c4ccccc34)[C@@](C(=O)OC)(c3cc4c(cc3OC)N(C)[C@H]3[C@@](O)(C(=O)OC)[C@H](OC(C)=O)[C@]5(CC)C=CCN6CC[C@]43[C@@H]65)C2)C1 [VINBLASTINE]
ILS at 5 mg/kg (P388 [7]): 83%
